Experimental data: ChEMBL document CHEMBL1201862, “PubChem BioAssay data set” (2004)
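Exposure lasted 48 hours, with cells grown in 96-well plates and compounds tested at five concentrations. GI50: concentration for 50% inhibition of growth.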 Active and inactive are the calls of the source. Rule as the data show it: active = GI50 up to about 1.1 µM and inactive = higher.

How the values were obtained:
Test in all cases: NCI-60 cell line screen, 48 h
[1] = system: SK-MEL-28
[2] = system: HL-60
[3] = system: SW-620
[4] = system: UACC-257
[5] = system: PC-3
[6] = system: M14
[7] = system: MDA-N
[8] = system: KM12
[9] = system: HOP-92
[10] = system: SF-268
[11] = system: OVCAR-4
[12] = system: SK-MEL-2
[13] = system: A498
[14] = system: NCI-H23
[15] = system: SR
[16] = system: SK-OV-3
[17] = system: COLO 205
[18] = system: NCI-H522
[19] = system: U-251
[20] = system: OVCAR-3

Row | SMILES | GI50 [1] | GI50 [2] | GI50 [3] | GI50 [4] | GI50 [5] | GI50 [6] | GI50 [7] | GI50 [8] | GI50 [9] | GI50 [10] | GI50 [11] | GI50 [12] | GI50 [13] | GI50 [14] | GI50 [15] | GI50 [16] | GI50 [17] | GI50 [18] | GI50 [19] | GI50 [20]
1 | COc1cc2c(NCCN(C)C)nc3c4cc5c(cc4ccc3c2cc1OC)OCO5 | 4.93 µM (inactive) | 4.23 µM (inactive) | 3.36 µM (inactive) | 4.1 µM (inactive) | 5.04 µM (inactive) | 4.03 µM (inactive) | 3.57 µM (inactive) | 4.18 µM (inactive) | 4.82 µM (inactive) | 4.78 µM (inactive) | 3.96 µM (inactive) | 6.04 µM (inactive) | 2.76 µM (inactive) | 3.08 µM (inactive) | 0.115 µM (active) | 4.78 µM (inactive) | 2.81 µM (inactive) | 3.9 µM (inactive) | 4.16 µM (inactive) | –
2 | CC1(C=O)CCC23COC4(CCC5C6(C)CCC(OC7OCC(OC8OC(CO)C(O)C(OC9OC(CO)C(O)C(O)C9O)C8OC8OCC(O)C(O)C8O)C(O)C7OC7OC(CO)C(O)C(O)C7O)C(C)(C)C6CCC5(C)C4(C)CC2O)C3C1 (configuration not stated) | – | 0.356 µM (active) | 0.628 µM (active) | 1.75 µM (inactive) | 1.38 µM (inactive) | 1.52 µM (inactive) | 0.557 µM (active) | 0.0474 µM (active) | 0.381 µM (active) | 1.14 µM (inactive) | 1.16 µM (inactive) | 1.57 µM (inactive) | 0.552 µM (active) | 1.76 µM (inactive) | 0.132 µM (active) | 1.28 µM (inactive) | 1.3 µM (inactive) | 1.68 µM (inactive) | 2.34 µM (inactive) | 1.47 µM (inactive)
3 | Cc1c(-c2ccccc2)c(C#N)c2nnn(-c3ccc(Cl)cc3)c(=O)n12 | > 100 µM (inactive) | 4.43 µM (inactive) | 25.2 µM (inactive) | 35.8 µM (inactive) | 22.2 µM (inactive) | 5.08 µM (inactive) | 24.2 µM (inactive) | 24.2 µM (inactive) | > 100 µM (inactive) | 32.6 µM (inactive) | 25.8 µM (inactive) | 26.8 µM (inactive) | 68.7 µM (inactive) | 37 µM (inactive) | 8.53 µM (inactive) | 89.7 µM (inactive) | 11 µM (inactive) | 10.9 µM (inactive) | 13.8 µM (inactive) | 16.4 µM (inactive)
4 | CCOC1CN=C(Nc2cccc3ccccc23)S1 (configuration not stated) | > 10 µM (inactive) | > 10 µM (inactive) | > 10 µM (inactive) | > 10 µM (inactive) | > 10 µM (inactive) | > 10 µM (inactive) | > 10 µM (inactive) | > 10 µM (inactive) | > 10 µM (inactive) | > 10 µM (inactive) | > 10 µM (inactive) | > 10 µM (inactive) | > 10 µM (inactive) | > 10 µM (inactive) | > 10 µM (inactive) | > 10 µM (inactive) | > 10 µM (inactive) | > 10 µM (inactive) | > 10 µM (inactive) | > 10 µM (inactive)
5 | C=C1c2nc3ccccc3n2C=C(c2ccc(Cl)cc2)N1c1ccccc1 | 11.7 µM (inactive) | 41.1 µM (inactive) | 25.3 µM (inactive) | 18.7 µM (inactive) | 26.4 µM (inactive) | 16.3 µM (inactive) | 33.1 µM (inactive) | 12.3 µM (inactive) | 20.7 µM (inactive) | – | 10.5 µM (inactive) | 22.5 µM (inactive) | 37.2 µM (inactive) | 11.7 µM (inactive) | 5.94 µM (inactive) | 16.9 µM (inactive) | 29.6 µM (inactive) | 4 µM (inactive) | 18.7 µM (inactive) | 17.2 µM (inactive)
